Experimental data reported in article PMC7687371, “Quantitative in Vitro to in Vivo Extrapolation (QIVIVE) for Predicting Reduced Anogenital Distance Produced by Anti-Androgenic Pesticides in a Rodent Model for Male Reproductive Disorders” (Environmental Health Perspectives, 2020).

Experiments:
androgen receptor (AR) = molecular target: T1, androgen receptor (AR) (Homo sapiens, UniProt P10275); assay: AR-EcoScreen androgen receptor transcriptional activation assay (AR antagonism); assay type: cell-based
T1 construct: host or cells: AR-EcoScreen cells
T1 sequence (P10275 1-920): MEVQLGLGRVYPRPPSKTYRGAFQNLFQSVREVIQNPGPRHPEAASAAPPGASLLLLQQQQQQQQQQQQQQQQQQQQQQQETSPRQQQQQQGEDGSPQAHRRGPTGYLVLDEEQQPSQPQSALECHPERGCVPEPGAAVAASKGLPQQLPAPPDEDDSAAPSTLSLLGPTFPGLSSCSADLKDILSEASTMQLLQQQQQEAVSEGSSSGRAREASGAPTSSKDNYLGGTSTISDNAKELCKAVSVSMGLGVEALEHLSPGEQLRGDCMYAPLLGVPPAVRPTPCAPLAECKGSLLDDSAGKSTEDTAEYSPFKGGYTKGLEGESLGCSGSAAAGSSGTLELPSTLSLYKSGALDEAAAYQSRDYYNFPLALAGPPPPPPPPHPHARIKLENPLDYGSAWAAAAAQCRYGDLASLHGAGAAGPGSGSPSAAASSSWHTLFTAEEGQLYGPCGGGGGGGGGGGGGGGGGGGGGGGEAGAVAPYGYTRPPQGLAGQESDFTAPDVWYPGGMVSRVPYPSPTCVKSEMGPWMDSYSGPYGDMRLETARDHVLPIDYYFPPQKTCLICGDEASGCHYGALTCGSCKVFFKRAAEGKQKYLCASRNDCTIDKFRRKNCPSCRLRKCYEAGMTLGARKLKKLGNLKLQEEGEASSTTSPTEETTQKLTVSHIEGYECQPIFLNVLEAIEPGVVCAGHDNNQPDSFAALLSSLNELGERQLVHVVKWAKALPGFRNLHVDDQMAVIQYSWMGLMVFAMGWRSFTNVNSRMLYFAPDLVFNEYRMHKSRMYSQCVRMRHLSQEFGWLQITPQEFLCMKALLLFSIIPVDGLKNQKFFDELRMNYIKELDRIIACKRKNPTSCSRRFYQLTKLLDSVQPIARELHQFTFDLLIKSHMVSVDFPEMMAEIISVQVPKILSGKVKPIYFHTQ
Description: Experiments were run with three technical replicates and repeated three times. The mean value of technical replicates represents one biological replicate. AR-EcoScreen™ cells (JCRB1328; Japanese Collection of Research Bioresources) were grown in CellBIND® surface cell culture flasks (Corning Inc.) in growth medium consisting of Gibco® Dulbecco’s Modified Eagle’s Medium/F-12 (DMEM/F-12) Nutrient Mixture with L-glutamine and 4-(2-hydroxyethyl)-1-piperazineethanesulfonic acid (HEPES) and without phenol red supplemented with 5% fetal bovine serum (FBS), 1% penicillin-streptomycin, 200μg/mL Zeocin™ selection reagent, and 100μg/mL Hygromycin B (all reagents from Invitrogen, Life Technologies). The cells were incubated at 37°C in a humidified atmosphere of 5% carbon dioxide ( CO2 ) and 95% air. On the day before the experiment, cells were plated in white 96-well plates (Corning Inc.) at a density of 9,000 cells/well in assay medium consisting of Gibco® DMEM/F-12 Nutrient Mixture medium, 1% penicillin-streptomycin, with 5% dextran-coated charcoal-treated FBS (all reagents from Invitrogen, Life Technologies). On the following day, the medium was changed to assay medium containing the known AR agonist R1881 (Perkin Elmer) in 2-fold serial dilutions from 0.008 to 1 nM or the known AR antagonist hydroxyflutamide (CASRN 52806-53-8, Toronto Research Chemicals) in 3-fold serial dilutions from […] together with 0.1 nM R1881. […] The DMSO vehicle concentrations were kept constant in all wells (0.1%). Following approximately 20 h of exposure to test compounds firefly luminescence was measured in a luminometer (LUMIstar® Galaxy, BMG LABTECH) using Dual-Glo® Luciferase Reagent from the Dual-Glo® Luciferase Assay System from Promega. Cell viability was measured by Renilla luminescence using Dual-Glo® Stop & Glo® Reagent from the Dual-Glo® Luciferase Assay System.

[1] = PBK model first-order kinetic parameters fitted to in vivo ADME data; design: species or system rat
[2] = Fetal chemical exposure analysis (LC-QTOF) at GD21; assay type: in vivo, rat; details: fetal plasma GD21
Description: Dams were decapitated under CO2 /oxygen anesthesia at GD21 and fetuses collected by cesarean section. Prior to decapitation of the fetuses, their BWs and AGDs were recorded. Blood from the dams was collected in heparinized vacutainer tubes, centrifuged at 125×g for 10 min at 4°C to prepare plasma, and, together with the amniotic fluid, frozen directly. Pooled trunk blood from all female and male fetuses of the same litter (female and male blood separately) was collected into heparin-treated capillary tubes approximately 90 min after dosing and the plasma was prepared and stored at −80°C until analysis for pesticides and selected metabolites by liquid chromatography quadrupole time-of-flight mass spectroscopy (LC-QTOF). Details about the LC-QTOF analyses are provided in “Method S1” in Supplemental Material. Amniotic fluid was collected from fetuses by pipetting, pooled within each litter, snap frozen in liquid nitrogen, and subsequently stored at −80 °C .
Method S1. Chemical analysis of pesticide levels
Acetonitrile, methanol, formic acid and 25% ammonium hydroxide, all of LC-MS grade and ethyl acetate were obtained from Sigma Aldrich, Schneldorf, Germany. Isolute bulk C-18 sorbent was obtained from Biotage, Sweden and was washed with acetonitrile and ethyl acetate and dried prior to use. Water was purified on a Milli Q system, Millipore Corporation, US.
Pesticide standards were purchased from Dr. Ehrenstorfer (Augsburg, Germany), LGC-standards (Teddington, Middlesex, UK) and Sigma Aldrich (St. Louis, MO, USA). Acetonitrile used as solvents for the LC-QTOF was LiChrosolv Hypergrade. An ESI-L low concentration tuning mix from Agilent (Santa Clara, CA, USA) was used for tuning of the TOF. A reference solution was prepared containing Purine and HP0921 from Agilent (Santa Clara, CA, USA).
Stock solutions of the pesticides were prepared at 1 mg/ml in acetonitrile, methanol or toluene.
Standard mixtures containing the test compounds were prepared at a concentration of 10 µg/ml acetonitrile and used for preparation of calibration solutions. Isomers eluting very close to each other were avoided in these mixtures. […]
added 200 µl of ice-cold acetonitrile in Eppendorf tubes. Internal standard was added in the form of 10 µl TPP (5 µg/ml) and the extraction was performed by whirl mixing. The tube was then stored on ice for 5 min and then centrifuged at 10,000 x g for 10 min at 4 °C (Ole Dich Instrument, Denmark). An aliquot of the supernatant was transferred to filter vials (0.45 µm) and analysed by […]
Quality control samples were included in each analytical run. These were prepared using the same procedure as for the samples, though using amniotic fluid from untreated control Wistar rats extracted with acetonitrile containing three different levels of the relevant pesticide standards. The resulting spike levels were 0.04, 0.013 and 0.13 µg/ml. […]
fluid or plasma from Sprague Dawley rats was transferred to an Eppendorf vial and added 150 µl of acetonitrile. 50 mg of isolute C-18 sorbent was added to the tube, which was shaken for 5 min, […]
cooled to 4 °C and centrifuged at 10,000 x g for 10 min at 4 °C (Ole Dich Instrument makers, Denmark). 20 µl of the supernatant was transferred to an HPLC vial and mixed with 80 µl of 5%- 75% acetonitrile (this percentage was analyte dependent) prior to analysis by LC-MS.LC -QTOF […]
Pesticide screening was carried out using a liquid chromatography-electrospray ionization-quadrupole-time of flight-mass spectrometer.
The LC system was connected to a Bruker Daltonics, maXis qTOF mass spectrometer equipped with an electrospray ion source operated in positive ion mode (Bruker Daltonics, Bremen, Germany). The ion source settings were: nebulizer pressure 2 bars, drying gas flow 8 l/min, dry gas temperature 200 °C, capillary voltage 2500 V. The scan range was from 80 to 700 m/z with an acquisition rate of 2 Hz. Sodium formate dissolved in 50% 2-propanol was introduced in the ion […]

[3] = design: method as in U.S. EPA 2012; details: EPI Suite, experimental preferred over modeled; ref U.S. EPA 2012; cited from earlier work

SMILES: CONC(=O)Nc1ccc(Cl)c(Cl)c1 [DPMU, 1-(3,4-Dichlorophenyl)-3-methoxyurea]
- IC50 (androgen receptor (AR)): 4 µM
- Urine excretion rate from kidney (L/h) KUrine ([1]; PBK model parameter): 0.05 L/h
- Metabolism rate in liver, Metabolite ([1]; conversion of parent compound into active metabolite): 0.22 L/h
- Metabolism rate in liver, Total (L/h) KMetab ([1]; metabolic clearance, PBK model parameter): 0.02 L/h
- Measured concentration in male fetuses ([2]; dams dosed linuron 25 mg/kg BW per day): 5.0 µM
- Measured concentration in male fetuses ([2]; dams dosed linuron 50 mg/kg BW per day): 9.6 µM
- Measured concentration in male fetuses ([2]; dams dosed linuron 75 mg/kg BW per day): 21.4 µM
- log Kow [3]: 2.70
